This assay addresses T1, 5-hydroxytryptamine receptor 2C (Rattus norvegicus, UniProt P08909).
T1 sequence (P08909 whole entry): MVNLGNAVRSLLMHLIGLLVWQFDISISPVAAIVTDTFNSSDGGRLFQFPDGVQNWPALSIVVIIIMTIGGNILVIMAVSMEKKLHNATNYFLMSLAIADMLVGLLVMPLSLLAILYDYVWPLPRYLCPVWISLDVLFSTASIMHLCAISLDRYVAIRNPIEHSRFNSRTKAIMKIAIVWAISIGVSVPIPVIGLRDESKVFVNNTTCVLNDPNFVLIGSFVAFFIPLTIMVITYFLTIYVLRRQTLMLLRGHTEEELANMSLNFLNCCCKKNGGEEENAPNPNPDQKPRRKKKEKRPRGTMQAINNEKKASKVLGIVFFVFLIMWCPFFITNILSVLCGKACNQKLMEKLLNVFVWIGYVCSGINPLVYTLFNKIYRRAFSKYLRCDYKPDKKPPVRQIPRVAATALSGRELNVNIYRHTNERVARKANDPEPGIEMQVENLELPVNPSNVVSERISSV
Briefly: Binding affinity for 5-hydroxytryptamine 1C receptor was determined.

The compound `NCCc1c[nH]c2ccc(C(N)=O)cc12` [[3H]-5-carboxamidotryptamine] had a Kd of 631 nM.

The Kd is the concentration at which binding is half-saturated. A high value points to lower affinity.

The record behind these values is BindingDB's records for doi:10.1021/jm00065a015 (Smithkline Beecham Pharmaceuticals, 1993).
